The source made the active and inactive calls.
How the values were obtained:
[1] = target: T1, Caspase-3 (Homo sapiens, UniProt P42574); type: functional;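 further: Dose-response selectivity test against caspase-3 for candidate inhibitors of sentrin-specific proteases (SENPs)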
T1 sequence (P42574 whole entry): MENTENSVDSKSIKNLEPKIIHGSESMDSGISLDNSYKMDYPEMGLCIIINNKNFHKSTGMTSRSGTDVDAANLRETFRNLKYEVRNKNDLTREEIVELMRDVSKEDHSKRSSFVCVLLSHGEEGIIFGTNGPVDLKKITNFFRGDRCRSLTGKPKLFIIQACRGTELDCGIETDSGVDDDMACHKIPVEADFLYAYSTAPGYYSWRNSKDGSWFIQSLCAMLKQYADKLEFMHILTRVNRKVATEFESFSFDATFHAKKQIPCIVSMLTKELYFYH

[2] = target: T2, Sentrin-specific protease 7 (Homo sapiens, UniProt Q9BQF6); type: functional;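 further: Luminescence-based dose-response confirmation of ultra-high-throughput screening hits, measuring inhibition of SENP7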
T2 sequence (Q9BQF6 whole entry): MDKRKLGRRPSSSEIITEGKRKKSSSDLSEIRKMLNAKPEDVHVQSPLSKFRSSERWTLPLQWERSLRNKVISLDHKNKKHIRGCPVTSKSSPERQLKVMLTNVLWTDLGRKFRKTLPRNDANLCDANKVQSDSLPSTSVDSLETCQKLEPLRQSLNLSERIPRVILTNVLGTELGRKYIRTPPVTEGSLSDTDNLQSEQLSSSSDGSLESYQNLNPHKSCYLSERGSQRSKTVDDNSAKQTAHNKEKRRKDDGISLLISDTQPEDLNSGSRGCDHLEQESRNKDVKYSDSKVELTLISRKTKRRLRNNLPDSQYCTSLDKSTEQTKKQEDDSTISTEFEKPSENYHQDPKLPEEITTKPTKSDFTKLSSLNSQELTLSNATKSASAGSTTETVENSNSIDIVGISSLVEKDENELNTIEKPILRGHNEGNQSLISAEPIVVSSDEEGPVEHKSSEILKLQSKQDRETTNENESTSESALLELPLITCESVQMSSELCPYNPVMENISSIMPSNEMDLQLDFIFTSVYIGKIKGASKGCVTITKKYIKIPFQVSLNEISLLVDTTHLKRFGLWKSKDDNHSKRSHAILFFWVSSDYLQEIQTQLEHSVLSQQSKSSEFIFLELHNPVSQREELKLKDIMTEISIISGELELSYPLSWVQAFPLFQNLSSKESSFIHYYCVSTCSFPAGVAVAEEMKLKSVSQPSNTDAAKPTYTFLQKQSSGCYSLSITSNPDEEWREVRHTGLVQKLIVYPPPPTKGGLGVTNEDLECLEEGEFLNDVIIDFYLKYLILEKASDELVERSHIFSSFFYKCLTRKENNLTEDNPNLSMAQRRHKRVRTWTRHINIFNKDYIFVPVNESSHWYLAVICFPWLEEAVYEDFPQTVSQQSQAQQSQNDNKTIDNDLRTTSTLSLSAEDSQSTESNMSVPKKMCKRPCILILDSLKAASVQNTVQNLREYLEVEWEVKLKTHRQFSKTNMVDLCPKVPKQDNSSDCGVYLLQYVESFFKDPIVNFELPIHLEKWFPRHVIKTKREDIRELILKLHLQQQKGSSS

[3] = target: T3, Sentrin-specific protease 6 (Homo sapiens, UniProt Q9GZR1); type: functional;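 further: Luminescence-based dose-response confirmatory assay of SENP6 inhibition, following up an ultra-high-throughput screen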
T3 sequence (Q9GZR1 whole entry): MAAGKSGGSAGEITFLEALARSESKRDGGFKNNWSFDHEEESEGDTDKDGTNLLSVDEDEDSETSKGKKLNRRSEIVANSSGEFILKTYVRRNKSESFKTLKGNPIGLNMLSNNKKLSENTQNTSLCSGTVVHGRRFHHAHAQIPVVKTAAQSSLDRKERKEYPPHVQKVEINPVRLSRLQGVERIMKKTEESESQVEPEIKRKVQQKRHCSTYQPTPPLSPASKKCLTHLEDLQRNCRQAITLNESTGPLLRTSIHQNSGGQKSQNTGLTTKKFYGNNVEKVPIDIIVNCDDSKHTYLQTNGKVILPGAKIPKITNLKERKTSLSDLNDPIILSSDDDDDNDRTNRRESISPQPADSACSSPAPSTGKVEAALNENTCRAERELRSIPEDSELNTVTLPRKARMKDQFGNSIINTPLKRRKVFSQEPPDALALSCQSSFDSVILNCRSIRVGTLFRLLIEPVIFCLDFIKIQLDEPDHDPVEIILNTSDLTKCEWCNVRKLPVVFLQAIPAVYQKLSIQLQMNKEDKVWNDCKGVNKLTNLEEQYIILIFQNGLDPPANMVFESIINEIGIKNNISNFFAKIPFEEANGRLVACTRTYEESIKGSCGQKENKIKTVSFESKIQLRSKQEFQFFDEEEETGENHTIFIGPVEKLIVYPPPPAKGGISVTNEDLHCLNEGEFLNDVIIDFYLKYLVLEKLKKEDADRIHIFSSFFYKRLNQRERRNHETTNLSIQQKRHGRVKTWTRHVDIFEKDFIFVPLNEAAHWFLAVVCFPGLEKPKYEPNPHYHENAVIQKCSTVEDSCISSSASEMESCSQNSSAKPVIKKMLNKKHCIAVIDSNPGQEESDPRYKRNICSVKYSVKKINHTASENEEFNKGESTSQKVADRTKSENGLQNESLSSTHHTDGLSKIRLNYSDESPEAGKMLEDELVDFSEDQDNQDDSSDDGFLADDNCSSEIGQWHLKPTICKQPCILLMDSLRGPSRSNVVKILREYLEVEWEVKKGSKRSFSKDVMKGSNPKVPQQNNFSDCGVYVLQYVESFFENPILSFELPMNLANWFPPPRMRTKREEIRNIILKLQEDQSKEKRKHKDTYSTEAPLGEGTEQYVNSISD

[4] = target: T4, Sentrin-specific protease 8 (Homo sapiens, UniProt Q96LD8); type: functional;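 further: luminescence read-out of SENP8 inhibition, dose-response confirmation following an ultra-high-throughput screen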
T4 sequence (Q96LD8 whole entry): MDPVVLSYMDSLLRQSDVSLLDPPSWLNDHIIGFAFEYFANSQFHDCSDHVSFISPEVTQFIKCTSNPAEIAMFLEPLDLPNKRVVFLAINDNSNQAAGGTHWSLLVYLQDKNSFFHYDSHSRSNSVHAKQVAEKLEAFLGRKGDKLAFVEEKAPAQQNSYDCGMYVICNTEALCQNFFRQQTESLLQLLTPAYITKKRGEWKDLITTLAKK

[5] = system: BJ; assay: BJ-TERT fibroblast viability loss – cell-based, RAS-independent, luminescence, dose response (AID 1933); type: functional; details: Homo sapiens
[6] = system: BJ; assay: cells; type: functional, cell-based; details: Homo sapiens
[7] = system: BJ; assay: BJ-TERT-LT-ST fibroblast viability loss – cell-based, RAS-independent, luminescence, dose response (AID 1935); type: functional; details: Homo sapiens;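 further: BJ fibroblasts immortalized with TERT plus LT and ST oncogenes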
[8] = DRD fibroblast viability loss – cell-based, non-viral oncogenic, luminescence, dose response (AID 1934); type: functional; details: Homo sapiens
[9] = HEK-293T viability loss after treatment – luminescence, T-cell screen hits, cytotoxicity control for TCR NF-kB inhibitor project, dose response (AID 489026); type: functional, cell-based;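 further: cells exposed to compound about 14 hours before the viability readout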
[10] = Luminescence Cell-Based Dose Retest to Confirm Inhibitors of Cancer Stem Cells. [Related pubchem assays (depositor defined):AID2717, AID2721]; type: functional; details: Homo sapiens
[11] = target: T5, Fatty acid synthase (Homo sapiens, UniProt P49327); assay: inhibition of human FAS-TE enzyme activity – biochemical, endpoint fluorescence intensity, uHTS hits, dose response (AID 624327); type: functional;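 further: fluorescence from hydrolysis of an O-methyl fluorescein acyl ester substrate by the enzyme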
T5 sequence (P49327 whole entry): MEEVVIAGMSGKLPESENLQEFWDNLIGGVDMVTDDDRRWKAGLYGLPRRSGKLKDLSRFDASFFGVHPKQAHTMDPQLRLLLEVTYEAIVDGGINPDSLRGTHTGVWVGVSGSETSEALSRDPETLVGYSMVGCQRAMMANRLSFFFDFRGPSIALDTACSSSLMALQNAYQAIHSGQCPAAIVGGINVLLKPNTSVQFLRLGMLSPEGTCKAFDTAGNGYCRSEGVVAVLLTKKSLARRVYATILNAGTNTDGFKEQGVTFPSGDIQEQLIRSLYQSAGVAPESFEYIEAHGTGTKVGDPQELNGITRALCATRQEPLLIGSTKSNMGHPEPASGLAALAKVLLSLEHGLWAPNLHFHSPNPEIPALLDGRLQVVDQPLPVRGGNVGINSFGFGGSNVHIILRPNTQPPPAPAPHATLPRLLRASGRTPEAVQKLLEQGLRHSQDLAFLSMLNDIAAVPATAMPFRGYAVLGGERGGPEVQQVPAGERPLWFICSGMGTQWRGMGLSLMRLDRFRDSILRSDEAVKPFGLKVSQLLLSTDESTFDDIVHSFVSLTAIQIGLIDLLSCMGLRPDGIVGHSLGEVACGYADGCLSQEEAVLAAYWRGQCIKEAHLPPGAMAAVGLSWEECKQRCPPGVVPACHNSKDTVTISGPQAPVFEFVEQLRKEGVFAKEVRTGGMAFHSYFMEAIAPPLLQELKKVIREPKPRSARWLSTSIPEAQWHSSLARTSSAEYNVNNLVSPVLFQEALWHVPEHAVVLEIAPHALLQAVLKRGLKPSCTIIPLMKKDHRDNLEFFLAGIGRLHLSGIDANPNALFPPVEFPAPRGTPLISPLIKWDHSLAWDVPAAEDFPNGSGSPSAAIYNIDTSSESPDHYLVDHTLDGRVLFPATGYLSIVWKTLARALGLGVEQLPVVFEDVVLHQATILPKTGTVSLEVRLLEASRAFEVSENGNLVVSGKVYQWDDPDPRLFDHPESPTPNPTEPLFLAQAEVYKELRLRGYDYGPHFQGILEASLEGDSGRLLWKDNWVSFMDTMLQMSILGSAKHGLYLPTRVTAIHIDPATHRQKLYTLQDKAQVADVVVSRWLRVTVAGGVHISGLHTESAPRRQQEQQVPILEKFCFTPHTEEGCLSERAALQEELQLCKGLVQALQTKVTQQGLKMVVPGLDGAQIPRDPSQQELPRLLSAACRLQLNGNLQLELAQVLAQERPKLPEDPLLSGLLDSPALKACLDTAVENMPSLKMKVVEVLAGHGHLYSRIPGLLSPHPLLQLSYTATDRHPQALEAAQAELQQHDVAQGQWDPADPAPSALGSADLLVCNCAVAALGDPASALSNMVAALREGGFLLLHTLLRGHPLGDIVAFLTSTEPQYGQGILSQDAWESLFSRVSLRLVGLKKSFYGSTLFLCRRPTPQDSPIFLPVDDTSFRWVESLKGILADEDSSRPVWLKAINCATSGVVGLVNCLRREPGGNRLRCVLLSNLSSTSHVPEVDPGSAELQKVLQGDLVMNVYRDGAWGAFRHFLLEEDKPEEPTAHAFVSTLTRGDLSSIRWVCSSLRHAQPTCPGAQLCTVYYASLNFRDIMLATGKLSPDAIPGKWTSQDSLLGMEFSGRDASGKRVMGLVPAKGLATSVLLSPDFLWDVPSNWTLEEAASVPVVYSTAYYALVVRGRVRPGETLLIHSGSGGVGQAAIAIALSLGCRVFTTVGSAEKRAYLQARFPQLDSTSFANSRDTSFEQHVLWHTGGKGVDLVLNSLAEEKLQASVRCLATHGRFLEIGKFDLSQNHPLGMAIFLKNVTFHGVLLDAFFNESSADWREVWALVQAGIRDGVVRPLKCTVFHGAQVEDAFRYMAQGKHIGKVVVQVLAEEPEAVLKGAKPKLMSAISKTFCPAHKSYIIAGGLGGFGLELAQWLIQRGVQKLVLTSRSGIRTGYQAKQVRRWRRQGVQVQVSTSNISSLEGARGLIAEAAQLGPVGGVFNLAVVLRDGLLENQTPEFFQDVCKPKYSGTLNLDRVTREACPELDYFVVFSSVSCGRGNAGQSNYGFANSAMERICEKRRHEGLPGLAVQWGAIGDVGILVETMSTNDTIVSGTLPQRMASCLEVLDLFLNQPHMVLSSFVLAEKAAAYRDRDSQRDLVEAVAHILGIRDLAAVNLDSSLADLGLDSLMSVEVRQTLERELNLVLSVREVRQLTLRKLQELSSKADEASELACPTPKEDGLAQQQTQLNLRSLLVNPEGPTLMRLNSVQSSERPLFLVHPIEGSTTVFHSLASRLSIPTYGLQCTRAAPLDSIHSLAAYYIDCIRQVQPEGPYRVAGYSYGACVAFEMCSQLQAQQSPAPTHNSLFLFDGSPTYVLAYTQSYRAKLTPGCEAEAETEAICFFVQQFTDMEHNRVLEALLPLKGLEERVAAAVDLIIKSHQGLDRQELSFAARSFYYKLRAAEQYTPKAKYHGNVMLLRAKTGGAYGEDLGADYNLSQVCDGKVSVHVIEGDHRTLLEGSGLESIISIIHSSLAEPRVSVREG

[12] = target: T5, Fatty acid synthase; assay: inhibition of human FAS-TE enzyme activity – biochemical, kinetic fluorescence intensity, dose response (AID 624326); type: functional;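 further: rate of fluorescence rise from hydrolysis of a fluorogenic O-methyl fluorescein ester substrate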
[13] = target: Beta-lactamase (Salmonella choleraesuis (strain SC-B67), UniProt Q5J463); assay: Epi-absorbance-based counterscreen for selective VIM-2 inhibitors: dose response biochemical high throughput screening assay to identify inhibitors of TEM-1 serine-beta-lactamase.
Sequence of Beta-lactamase (Salmonella choleraesuis (strain SC-B67), UniProt Q5J463) (Q5J463 whole entry): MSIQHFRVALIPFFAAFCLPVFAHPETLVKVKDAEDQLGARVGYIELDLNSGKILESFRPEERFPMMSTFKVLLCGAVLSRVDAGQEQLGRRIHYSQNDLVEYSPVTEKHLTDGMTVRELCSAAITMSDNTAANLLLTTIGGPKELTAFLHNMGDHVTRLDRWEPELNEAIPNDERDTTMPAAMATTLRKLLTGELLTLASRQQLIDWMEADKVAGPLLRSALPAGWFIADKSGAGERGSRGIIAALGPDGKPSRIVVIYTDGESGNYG

[14] = target: T6, Beta-lactamase (Pseudomonas aeruginosa, UniProt Q79MP6); assay: inhibition of IMP-1 beta-lactamase activity – biochemical, epi-absorbance, selectivity assay for VIM-2 inhibitor project, dose response (AID 1920)
T6 sequence (Q79MP6 whole entry): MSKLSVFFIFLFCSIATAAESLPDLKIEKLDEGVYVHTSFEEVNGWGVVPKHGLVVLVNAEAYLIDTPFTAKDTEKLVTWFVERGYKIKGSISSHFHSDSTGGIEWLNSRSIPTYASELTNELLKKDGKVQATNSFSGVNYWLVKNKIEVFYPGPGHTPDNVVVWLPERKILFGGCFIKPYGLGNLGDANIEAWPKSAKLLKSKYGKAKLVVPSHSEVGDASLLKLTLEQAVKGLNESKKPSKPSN

[15] = target: T6, Beta-lactamase; assay: […] counterscreen for selective VIM-2 inhibitors: dose response biochemical high throughput screening assay to identify inhibitors of IMP-1 metallo-beta-lactamase.
[16] = target: Eukaryotic translation initiation factor 4E (Mus musculus, UniProt P63073); assay: blockers of eIF4G binding by eIF4E – biochemical, TR-FRET, dose response (AID 855); type: functional;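 further: potency for disrupting eIF4E binding to eIF4GI seen as loss of FRET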
Sequence of Eukaryotic translation initiation factor 4E (P63073 whole entry): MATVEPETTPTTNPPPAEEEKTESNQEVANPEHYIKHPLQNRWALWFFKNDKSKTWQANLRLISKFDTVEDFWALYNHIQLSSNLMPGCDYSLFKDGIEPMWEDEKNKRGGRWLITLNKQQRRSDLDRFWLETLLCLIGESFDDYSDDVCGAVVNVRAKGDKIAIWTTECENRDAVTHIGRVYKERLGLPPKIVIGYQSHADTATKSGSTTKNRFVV

[17] = target: T7, Endoribonuclease toxin MazF (Escherichia coli K-12, UniProt P0AE70); assay: activation of MazEF endoribonuclease cleavage – biochemical, fluorescence, single-stranded RNA substrate, uHTS hits, dose response (AID 588481); type: functional
T7 sequence (P0AE70 whole entry): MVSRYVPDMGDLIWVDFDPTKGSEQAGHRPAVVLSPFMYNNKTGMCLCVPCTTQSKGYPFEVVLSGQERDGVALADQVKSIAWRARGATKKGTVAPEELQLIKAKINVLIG

[18] = target: T7, Endoribonuclease toxin MazF; assay: substrate-only fluorescence increase artefacts – biochemical, single-stranded RNase substrate, counter-screen for MazEF activator project, dose response (AID 588502); type: functional
[19] = system: P388/ADR; assay: cells; type: functional; details: Mus musculus
[20] = system: SN12K1; assay: cells; type: functional; details: Homo sapiens
[21] = system: P388; assay: cells; type: functional; details: Mus musculus
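Wherever AC50 is given: cells exposed to compound for roughly 70 hours or longer before luminescence read.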

COC(=O)c1ccc(NC(=O)Nc2ccc(F)c(Cl)c2)cc1
IC50 [1]: 48 µM (active) | IC50 [2]: 6.56 µM (active) | IC50 [3]: > 100 µM (inactive) | IC50 [4]: > 100 µM (inactive)

CCOc1ccc(S(=O)(=O)NCc2ccccn2)cc1NC(=O)c1ccccc1F
EC50 [5]: 2.76 µM (active) | EC50 [6]: 21.4 µM (active) | EC50 [7]: 1.79 µM (active) | EC50 [8]: 12.9 µM (inconclusive) | IC50 [9]: > 80 µM (inactive)

CC(C)C(=O)Nc1ccc2nn(-c3ccc(F)cc3)nc2c1
IC50 [1]: 8.48 µM (active) | IC50 [2]: 3.03 µM (active) | IC50 [3]: 6.19 µM (active) | IC50 [4]: 41.3 µM (active)

COC(=O)Nc1ccc(S(=O)(=O)N2c3ccccc3CCC2C)cc1 (stereo not given)
AC50 [10]: 876 nM (active) | IC50 [9]: > 80 µM (inactive)

CCCCC(CC)C(=O)Nc1cc([N+](=O)[O-])ccc1F (stereo not given)
IC50 [11]: 3.19 µM (active) | IC50 [12]: 4.44 µM (active)

CCCn1c(S)nnc1C(C)C
IC50 [13]: > 59.6 µM (inactive) | IC50 [14]: > 59.6 µM (inactive) | IC50 [15]: > 59.6 µM (inactive)

COC(=O)/C=C/C(=O)N1CCN(c2ccccc2C)CC1
IC50 [16]: > 64 µM (inactive)

O=C(C1CCN(S(=O)(=O)c2cccnc2)CC1)N1CCN(c2cccc(Cl)c2)CC1
IC50 [16]: > 64 µM (inactive)

O=C(CSc1nnc2scc(-c3ccccc3)n12)c1ccc2c(c1)OCCO2
EC50 [17]: > 99 µM (inactive) | EC50 [18]: > 99 µM (inactive)

CCn1c(O)c(N=Nc2ccc3ccccc3n2)c2ccccc21
IC50 [1]: 2.1 µM (active) | IC50 [2]: 0.857 µM (active) | IC50 [3]: 1.11 µM (active) | IC50 [4]: 1.83 µM (active)

COc1ccccc1C(=O)Nc1nnc(SCC(=O)NCc2ccco2)s1
IC50 [13]: > 59.6 µM (inactive) | IC50 [14]: > 59.6 µM (inactive) | IC50 [15]: > 59.6 µM (inactive)

O=C(O)CCSc1nnc(SCC(=O)NCC(F)(F)F)s1
IC50 [16]: > 64 µM (inactive)

NC(=O)c1ccccc1NC(=O)/C=C/c1c(Cl)cccc1Cl
IC50 [1]: 21.5 µM (active) | IC50 [2]: 6.11 µM (active) | IC50 [3]: > 100 µM (inactive) | IC50 [4]: > 100 µM (inactive)

CCCn1c(O)c(N=Nc2ccc3ccccc3n2)c2ccccc21
EC50 [17]: > 99 µM (inactive) | EC50 [18]: > 99 µM (inactive)

COc1ccc([N+](=O)[O-])cc1NC(=O)C(C)OC(=O)CC1CCCC1 (stereo not given)
IC50 [11]: 6.83 µM (active) | IC50 [12]: 5.28 µM (active)

OC(C1CO1)C(O)C1CO1 (stereo not given)
GI50 [19]: 9.79 µM (inactive) | GI50 [20]: 54.7 µM (inactive) | GI50 [21]: 13.5 µM (inactive)

CC(C)(C)C(=O)OCc1ccc(C2=CC(=O)CC(C)(C)C2=O)cc1
IC50 [11]: 1.28 µM (active) | IC50 [12]: 3.9 µM (active)

O=C1NC(O)CCN1C1OC(CO)C(O)C1O (stereo not given)
GI50 [19]: > 250 µM (inactive) | GI50 [20]: > 250 µM (inactive) | GI50 [21]: > 250 µM (inactive)

Cc1cc(C(=O)N/N=C/C(Cl)=C/c2ccccc2)c(C)o1
IC50 [1]: 18.2 µM (active) | IC50 [2]: 7.77 µM (active) | IC50 [3]: 22.6 µM (active) | IC50 [4]: > 100 µM (inactive)

CC(C)=CCc1cc(-c2oc3cc(O)cc(O)c3c(=O)c2O)ccc1O [ISOLICOFLAVONOL]
EC50 [17]: 14 µM (active) | EC50 [18]: > 99 µM (inactive)

CC/C=C\C/C=C\C/C=C\CCCCCCCC(=O)OC [METHYL LINOLENATE]
GI50 [19]: 28.2 µM (inactive) | GI50 [20]: > 100 µM (inactive) | GI50 [21]: > 10 µM (inactive)

O=C1N[C@H]2[C@H](O)[C@H](O)[C@@H](O)[C@H](O)[C@@H]2c2cc3c(c(O)c21)OCO3 [PANCRATISTATIN]
GI50 [19]: 0.0406 µM (active) | GI50 [20]: 0.047 µM (active) | GI50 [21]: 0.0366 µM (active)
